Source: patent US10196403B2, “Compounds and compositions and uses thereof” (Sunovion Pharmaceuticals Inc., priority 2016, dated 2019)
Read-outs that look alike come from different tables or passages of the source.

System: mice
Assay: Neuropharmacological Assay (SmartCube)
Assay type: in vivo
Conditions: for minimal effective dose: Mus musculus, read-out: POTENCY (minimal effective dose, MED); for AD: ADHD (SmartCube probability) / AG: analgesic (SmartCube probability) / AX: anxiolytic (SmartCube probability) / CE: cognitive enhancer (SmartCube probability) / DP: anti-depressant (SmartCube probability) / MS: mood stabilizer (SmartCube probability) / PS: anti-psychotic (SmartCube probability) / SD: sedative hypnotic (SmartCube probability) / UN: uncharacterized CNS activity (SmartCube probability): mice, i.p. 15 min before test, most efficacious dose(s) of 3 doses
Outline: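 Compounds in NMP/PEG/propylene glycol given i.p. 15 min before automated video-based behavioral testing, at 3 doses; behavioral signature compared with a reference-compound database to give probability per drug class, reported at most efficacious dose. MED = dose (mpk) giving ≥50% total activity; doses typically 0.3–30 mpk.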

[1] = MED = dose having 50% or more total activity in SmartCube

SMILES: NC[C@H]1OCCc2c1ccc1c2OCO1 [Example 11, (S)-(8,9-dihydro-6H-[1,3]dioxolo[4,5-f]isochromen-6-yl)methanamine]
- minimal effective dose [1]: 3 to 10 mg/kg
- AD: ADHD (SmartCube probability): ++ (5%≤ ++ <25%)
- AG: analgesic (SmartCube probability): + (LOQ≤ + <5%)
- AX: anxiolytic (SmartCube probability): + (LOQ≤ + <5%)
- CE: cognitive enhancer (SmartCube probability): + (LOQ≤ + <5%)
- DP: anti-depressant (SmartCube probability): ++++ (50%≤ ++++)
- MS: mood stabilizer (SmartCube probability): + (LOQ≤ + <5%)
- PS: anti-psychotic (SmartCube probability): + (LOQ≤ + <5%)
- SD: sedative hypnotic (SmartCube probability): + (LOQ≤ + <5%)
- UN: uncharacterized CNS activity (SmartCube probability): + (LOQ≤ + <5%)

SMILES: NC[C@@H]1OCCc2c1ccc1c2OCO1 [Example 12, (R)-(8,9-dihydro-6H-[1,3]dioxolo[4,5-f]isochromen-6-yl)methanamine]
- minimal effective dose [1]: 3 to 10 mg/kg
- AD: ADHD (SmartCube probability): + (LOQ≤ + <5%)
- AG: analgesic (SmartCube probability): ++ (5%≤ ++ <25%)
- AX: anxiolytic (SmartCube probability): + (LOQ≤ + <5%)
- CE: cognitive enhancer (SmartCube probability): + (LOQ≤ + <5%)
- DP: anti-depressant (SmartCube probability): ++++ (50%≤ ++++)
- MS: mood stabilizer (SmartCube probability): + (LOQ≤ + <5%)
- PS: anti-psychotic (SmartCube probability): ++ (5%≤ ++ <25%)
- SD: sedative hypnotic (SmartCube probability): ++ (5%≤ ++ <25%)
- UN: uncharacterized CNS activity (SmartCube probability): ++ (5%≤ ++ <25%)

SMILES: CNC[C@@H]1OC[C@@H](C)c2ccccc21 [Example 20, N-methyl-1-((1R,4S)-4-methylisochroman-1-yl)methanamine]
- minimal effective dose [1]: < 3 mg/kg
- AD: ADHD (SmartCube probability): + (LOQ≤ + <5%)
- AG: analgesic (SmartCube probability): + (LOQ≤ + <5%)
- AX: anxiolytic (SmartCube probability): ++ (5%≤ ++ <25%)
- CE: cognitive enhancer (SmartCube probability): ++ (5%≤ ++ <25%)
- DP: anti-depressant (SmartCube probability): ++ (5%≤ ++ <25%)
- MS: mood stabilizer (SmartCube probability): + (LOQ≤ + <5%)
- PS: anti-psychotic (SmartCube probability): ++++ (50%≤ ++++)
- SD: sedative hypnotic (SmartCube probability): ++ (5%≤ ++ <25%)
- UN: uncharacterized CNS activity (SmartCube probability): ++++ (50%≤ ++++)

SMILES: CNC[C@H]1OCCc2c(OC)cccc21 [Example 62, (S)-1-(5-methoxyisochroman-1-yl)-N-methylmethanamine]
- minimal effective dose [1]: 10 to 30 mg/kg
- AD: ADHD (SmartCube probability): + (LOQ≤ + <5%)
- AG: analgesic (SmartCube probability): ++ (5%≤ ++ <25%)
- AX: anxiolytic (SmartCube probability): ++++ (50%≤ ++++)
- CE: cognitive enhancer (SmartCube probability): + (LOQ≤ + <5%)
- DP: anti-depressant (SmartCube probability): + (LOQ≤ + <5%)
- MS: mood stabilizer (SmartCube probability): + (LOQ≤ + <5%)
- PS: anti-psychotic (SmartCube probability): + (LOQ≤ + <5%)
- SD: sedative hypnotic (SmartCube probability): + (LOQ≤ + <5%)
- UN: uncharacterized CNS activity (SmartCube probability): ++ (5%≤ ++ <25%)

SMILES: NC[C@@H]1OCCc2cccc(F)c21 [Example 35, (R)-(8-fluoroisochroman-1-yl)methanamine]
- minimal effective dose [1]: < 3 mg/kg
- AD: ADHD (SmartCube probability): ++ (5%≤ ++ <25%)
- AG: analgesic (SmartCube probability): ++ (5%≤ ++ <25%)
- AX: anxiolytic (SmartCube probability): ++ (5%≤ ++ <25%)
- CE: cognitive enhancer (SmartCube probability): ++ (5%≤ ++ <25%)
- DP: anti-depressant (SmartCube probability): ++++ (50%≤ ++++)
- MS: mood stabilizer (SmartCube probability): + (LOQ≤ + <5%)
- PS: anti-psychotic (SmartCube probability): ++ (5%≤ ++ <25%)
- SD: sedative hypnotic (SmartCube probability): ++ (5%≤ ++ <25%)
- UN: uncharacterized CNS activity (SmartCube probability): ++++ (50%≤ ++++)

SMILES: CNC[C@@H]1OCCc2c(OC)cccc21 [Example 63, (R)-1-(5-methoxyisochroman-1-yl)-N-methylmethanamine]
- POTENCY (minimal effective dose, MED) [1]: A-B
- AD: ADHD (SmartCube probability): ++ (5%≤ ++ <25%)
- AG: analgesic (SmartCube probability): + (LOQ≤ + <5%)
- AX: anxiolytic (SmartCube probability): ++ (5%≤ ++ <25%)
- CE: cognitive enhancer (SmartCube probability): + (LOQ≤ + <5%)
- DP: anti-depressant (SmartCube probability): ++++ (50%≤ ++++)
- MS: mood stabilizer (SmartCube probability): + (LOQ≤ + <5%)
- PS: anti-psychotic (SmartCube probability): + (LOQ≤ + <5%)
- SD: sedative hypnotic (SmartCube probability): ++ (5%≤ ++ <25%)
- UN: uncharacterized CNS activity (SmartCube probability): ++++ (50%≤ ++++)

SMILES: CNC[C@H]1OCc2cccc(F)c21 [Example 68, (S)-1-(7-fluoro-1,3-dihydroisobenzofuran-1-yl)-N-methylmethanamine]
- minimal effective dose [1]: 3 to 10 mg/kg
- AD: ADHD (SmartCube probability): + (LOQ≤ + <5%)
- AG: analgesic (SmartCube probability): ++ (5%≤ ++ <25%)
- AX: anxiolytic (SmartCube probability): ++ (5%≤ ++ <25%)
- CE: cognitive enhancer (SmartCube probability): ++ (5%≤ ++ <25%)
- DP: anti-depressant (SmartCube probability): ++ (5%≤ ++ <25%)
- MS: mood stabilizer (SmartCube probability): + (LOQ≤ + <5%)
- PS: anti-psychotic (SmartCube probability): ++ (5%≤ ++ <25%)
- SD: sedative hypnotic (SmartCube probability): +++ (25%≤ +++ <50%)
- UN: uncharacterized CNS activity (SmartCube probability): ++ (5%≤ ++ <25%)

SMILES: CNC[C@@H]1OCCc2ccc3c(c21)OC(F)(F)O3 [Example 101, (R)-1-(2,2-difluoro-6,9-dihydro-7H-[1,3]dioxolo[4,5-h]isochromen-9-yl)-N-methylmethanamine]
- minimal effective dose [1]: 3 to 10 mg/kg
- AD: ADHD (SmartCube probability): + (LOQ≤ + <5%)
- AG: analgesic (SmartCube probability): +++ (25%≤ +++ <50%)
- AX: anxiolytic (SmartCube probability): ++ (5%≤ ++ <25%)
- CE: cognitive enhancer (SmartCube probability): ++ (5%≤ ++ <25%)
- DP: anti-depressant (SmartCube probability): + (LOQ≤ + <5%)
- MS: mood stabilizer (SmartCube probability): + (LOQ≤ + <5%)
- PS: anti-psychotic (SmartCube probability): ++ (5%≤ ++ <25%)
- SD: sedative hypnotic (SmartCube probability): + (LOQ≤ + <5%)
- UN: uncharacterized CNS activity (SmartCube probability): + (LOQ≤ + <5%)

SMILES: CNC[C@H]1OCCc2cccc(F)c21 [Example 25, (S)-1-(8-fluoroisochroman-1-yl)-N-methylmethanamine]
- minimal effective dose [1]: 3 to 10 mg/kg
- AD: ADHD (SmartCube probability): + (LOQ≤ + <5%)
- AG: analgesic (SmartCube probability): ++ (5%≤ ++ <25%)
- AX: anxiolytic (SmartCube probability): + (LOQ≤ + <5%)
- CE: cognitive enhancer (SmartCube probability): ++ (5%≤ ++ <25%)
- DP: anti-depressant (SmartCube probability): +++ (25%≤ +++ <50%)
- MS: mood stabilizer (SmartCube probability): + (LOQ≤ + <5%)
- PS: anti-psychotic (SmartCube probability): ++ (5%≤ ++ <25%)
- SD: sedative hypnotic (SmartCube probability): ++ (5%≤ ++ <25%)
- UN: uncharacterized CNS activity (SmartCube probability): + (LOQ≤ + <5%)

SMILES: Fc1cccc2c1[C@@H](CNC1CCC1)OCC2 [Example 96, (S)-N-((8-fluoroisochroman-1-yl)methyl)cyclobutanamine]
- minimal effective dose: 10 to 30 mg/kg
- AD: ADHD (SmartCube probability): + (LOQ≤ + <5%)
- AG: analgesic (SmartCube probability): + (LOQ≤ + <5%)
- AX: anxiolytic (SmartCube probability): + (LOQ≤ + <5%)
- CE: cognitive enhancer (SmartCube probability): + (LOQ≤ + <5%)
- DP: anti-depressant (SmartCube probability): + (LOQ≤ + <5%)
- MS: mood stabilizer (SmartCube probability): + (LOQ≤ + <5%)
- PS: anti-psychotic (SmartCube probability): + (LOQ≤ + <5%)
- SD: sedative hypnotic (SmartCube probability): +++ (25%≤ +++ <50%)
- UN: uncharacterized CNS activity (SmartCube probability): + (LOQ≤ + <5%)

SMILES: CNC[C@@H]1OCC(C)(C)c2ccccc21 [Example 24, (R)-1-(4,4-dimethylisochroman-1-yl)-N-methylmethanamine]
- minimal effective dose [1]: < 3 mg/kg
- AD: ADHD (SmartCube probability): + (LOQ≤ + <5%)
- AG: analgesic (SmartCube probability): ++ (5%≤ ++ <25%)
- AX: anxiolytic (SmartCube probability): ++ (5%≤ ++ <25%)
- CE: cognitive enhancer (SmartCube probability): ++ (5%≤ ++ <25%)
- DP: anti-depressant (SmartCube probability): ++ (5%≤ ++ <25%)
- MS: mood stabilizer (SmartCube probability): + (LOQ≤ + <5%)
- PS: anti-psychotic (SmartCube probability): +++ (25%≤ +++ <50%)
- SD: sedative hypnotic (SmartCube probability): ++ (5%≤ ++ <25%)
- UN: uncharacterized CNS activity (SmartCube probability): +++ (25%≤ +++ <50%)

SMILES: CNC[C@@H]1OCCc2ccc3c(c21)COC3 [Example 109]
- POTENCY (minimal effective dose, MED) [1]: B (>3 to 10 mpk)
- AD: ADHD (SmartCube probability): + (LOQ≤ + <5%)
- AG: analgesic (SmartCube probability): + (LOQ≤ + <5%)
- AX: anxiolytic (SmartCube probability): ++ (5%≤ ++ <25%)
- CE: cognitive enhancer (SmartCube probability): + (LOQ≤ + <5%)
- DP: anti-depressant (SmartCube probability): ++ (5%≤ ++ <25%)
- MS: mood stabilizer (SmartCube probability): + (LOQ≤ + <5%)
- PS: anti-psychotic (SmartCube probability): ++++ (50%≤ ++++)
- SD: sedative hypnotic (SmartCube probability): ++ (5%≤ ++ <25%)
- UN: uncharacterized CNS activity (SmartCube probability): ++ (5%≤ ++ <25%)

SMILES: CNC[C@H]1OCC(C)(C)c2ccccc21 [Example 23, (S)-1-(4,4-dimethylisochroman-1-yl)-N-methylmethanamine]
- minimal effective dose [1]: 3 to 10 mg/kg
- AD: ADHD (SmartCube probability): + (LOQ≤ + <5%)
- AG: analgesic (SmartCube probability): ++ (5%≤ ++ <25%)
- AX: anxiolytic (SmartCube probability): ++ (5%≤ ++ <25%)
- CE: cognitive enhancer (SmartCube probability): ++ (5%≤ ++ <25%)
- DP: anti-depressant (SmartCube probability): ++ (5%≤ ++ <25%)
- MS: mood stabilizer (SmartCube probability): + (LOQ≤ + <5%)
- PS: anti-psychotic (SmartCube probability): +++ (25%≤ +++ <50%)
- SD: sedative hypnotic (SmartCube probability): ++ (5%≤ ++ <25%)
- UN: uncharacterized CNS activity (SmartCube probability): + (LOQ≤ + <5%)

SMILES: NC[C@@H]1OCCc2c(Cl)cccc21 [Example 67, (R)-(5-chloroisochroman-1-yl)methanamine]
- POTENCY (minimal effective dose, MED) [1]: A-B
- AD: ADHD (SmartCube probability): + (LOQ≤ + <5%)
- AG: analgesic (SmartCube probability): + (LOQ≤ + <5%)
- AX: anxiolytic (SmartCube probability): ++ (5%≤ ++ <25%)
- CE: cognitive enhancer (SmartCube probability): + (LOQ≤ + <5%)
- DP: anti-depressant (SmartCube probability): ++++ (50%≤ ++++)
- MS: mood stabilizer (SmartCube probability): + (LOQ≤ + <5%)
- PS: anti-psychotic (SmartCube probability): ++ (5%≤ ++ <25%)
- SD: sedative hypnotic (SmartCube probability): + (LOQ≤ + <5%)
- UN: uncharacterized CNS activity (SmartCube probability): + (LOQ≤ + <5%)

SMILES: CNC[C@H]1OCCc2cc(Cl)ccc21 [Example 80, (S)-1-(6-chloroisochroman-1-yl)-N-methylmethanamine]
- minimal effective dose [1]: 10 to 30 mg/kg
- AD: ADHD (SmartCube probability): + (LOQ≤ + <5%)
- AG: analgesic (SmartCube probability): + (LOQ≤ + <5%)
- AX: anxiolytic (SmartCube probability): ++ (5%≤ ++ <25%)
- CE: cognitive enhancer (SmartCube probability): ++ (5%≤ ++ <25%)
- DP: anti-depressant (SmartCube probability): ++ (5%≤ ++ <25%)
- MS: mood stabilizer (SmartCube probability): + (LOQ≤ + <5%)
- PS: anti-psychotic (SmartCube probability): +++ (25%≤ +++ <50%)
- SD: sedative hypnotic (SmartCube probability): + (LOQ≤ + <5%)
- UN: uncharacterized CNS activity (SmartCube probability): + (LOQ≤ + <5%)
